The values below come from PubChem BioAssay (NCI).

What all share (experiment): DTP human tumour cell line panel, 48 h
Assay [1] relates to COLO 205 colon.
In assay [2] the test system is K-562 leukemia.
The test system of assay [3] is KM12 colon.
Assay [4] has as its system LOX IMVI melanoma.
Assay [5] deals with NCI-H522 lung.
In assay [6] the test system is SF-539 CNS.
Assay [7] relates to SN12C renal.
Assay [8] concerns SW-620 colon.
In assay [9] the test system is UO-31 renal.
Assay [10] has as its system OVCAR-8 ovarian.

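A five-concentration, 48-hour dose response in 96-well plates underlies each endpoint, interpolated linearly between surrounding concentrations. At the GI50, growth is halved. TGI: concentration producing complete growth inhibition.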 A value given as a limit tells only on which side of the number the result lay.

With `O=CCC1CCCCC1`, the TGI in [1], in assay [2], in assay [3], in [4], in assay [5] and in assay [6] was over 100 µM each time. Moreover, the TGI in assay [7], in [8] and in [9] was over 100 µM each time.

For `CC(=O)CCn1ncc(Cl)c(Cl)c1=O`, the TGI in assay [2] is 18.5 µM; in [3], 41.5 µM; in [4] it was 30.5 µM; in assay [10], 54.9 µM; in [6], 38.5 µM; in assay [7] it was 27.9 µM. Also, the figures for the TGI in assay [8] and in assay [9] were 39 µM and 34.6 µM, respectively.

Take `N=C(N)C1CN(CCc2c[nH]c3ccccc23)C(=O)NC1=O` (configuration not stated): the TGI in assay [1], in assay [2], in assay [4], in [10], in [7] and in [8] was over 100 µM in each case. Besides, in assay [9], the TGI is over 100 µM.

For the compound `CCC(=O)CC(=O)CCC(=O)Nc1cc(C)ccc1C`, the TGI in [2], in [3], in assay [4], in assay [5], in [10] and in assay [6] was over 100 µM in each case. Also, the total growth inhibition concentration (TGI) in assay [7], in assay [8] and in [9] was over 100 µM in each case.

On to `C/C=C/C(CC(O)(C(F)(F)F)C(F)(F)F)=N/NC(N)=S`, for which the concentration for total growth inhibition (TGI) in assay [1], in assay [2], in assay [3], in assay [4], in assay [5] and in [10] was over 10 µM throughout. In addition, the TGI in assay [6], in assay [7] and in assay [8] was over 10 µM each time.

Regarding `CC(C)C(CCl)NC(=O)c1cccc(C(=O)N[C@H](CCl)C(C)C)n1` (stereo in doubt), the total growth inhibition concentration (TGI) in assay [1], in assay [2], in assay [3], in assay [4], in [5] and in assay [6] was over 100 µM throughout. For the same compound, the TGI in assay [7], in [8] and in assay [9] was over 100 µM in each case.

As for `COc1cc(-c2oc(=O)ccc2C#Cc2ccccn2)cc(OC)c1OC`, the GI50 is 3.72 µM in [1]; 0.646 µM in [2]; 0.884 µM in assay [3]; 4.38 µM in assay [4]; 3.89 µM in assay [10]; 3.03 µM in [6]. Moreover, the GI50 in assay [7] is 5.5 µM; in assay [8], 2.28 µM; in [9], 3.22 µM. In addition, the TGI in [1] is over 30.9 µM; in [2], over 100 µM; in [3], over 100 µM; in assay [4] it was over 100 µM; in assay [10], over 100 µM; in [6], 13.8 µM. Further, the TGI in assay [7], in [8] and in [9] was over 100 µM in each case.

As to `CC1=C(C(=O)Nc2ccc(F)c(Cl)c2)C(c2ccccc2O)NC(=S)N1` (configuration not stated), the GI50 is over 50 µM in assay [1]; 22 µM in [2]; over 50 µM in assay [3]; 23.6 µM in assay [4]; over 50 µM in assay [5]; 12.9 µM in assay [10]. In addition, the GI50 in assay [7], in assay [8] and in assay [9] was over 50 µM throughout. In addition, the TGI in assay [1], in assay [2], in [3], in assay [4], in assay [5] and in assay [10] was over 50 µM in each case. Besides, the TGI in assay [7], in assay [8] and in assay [9] was over 50 µM each time.

For `COC(=O)C1c2cc3c(cc2C(OC2OC(C)C(OC)C(C)(OC)C2OC)CC1(C)O)C(=O)c1c(O)cc2c(c1C3=O)OC1OC2(C)C(O)C([N+](C)(C)[O-])C1O` (configuration not stated), the total growth inhibition concentration (TGI) was 0.293 µM in [1]; 3.38 µM in assay [4]; 0.809 µM in assay [5]; 4.22 µM in assay [10]; 1.8 µM in [7]; over 23.8 µM in assay [8]. In assay [9], this compound displayed a total growth inhibition concentration (TGI) of 5.7 µM.

As to `Cc1cc(Nc2ccc(NC(=O)c3ccc(Nc4ccnc5ccccc45)cc3)cc2)nc(N)n1`, the GI50 in [7] is 2.13 µM; in assay [8], 1.37 µM; in assay [9] it was 50.9 µM. The concentration for total growth inhibition (TGI) in assay [7] was 5.02 µM; in assay [8], over 100 µM; in assay [9], over 100 µM.

As to `NC(N)=N/N=C/c1c(-c2ccsc2)nc2sccn12`, the GI50 was 13.1 µM in assay [2]; 12.1 µM in assay [3]; 17.6 µM in assay [4]; 12.2 µM in assay [5]; 31.1 µM in [10]; 18.3 µM in assay [6]. The GI50 in [7] was 15.7 µM; in [8], 18.3 µM; in assay [9] it was 20 µM. Also, the TGI in [2] was determined as 29.9 µM; in assay [3] it was 24.5 µM; in [4] it was 33.2 µM; in assay [5], 30.5 µM; in assay [10], 61.7 µM; in assay [6], 34.2 µM. The total growth inhibition concentration (TGI) in [7] stood at 29.7 µM; in assay [8], 43.1 µM; in assay [9], 36.8 µM.

With `CC1(C)CC(=O)C(C=NC(=S)c2ccccc2)=C(O)C1`, the total growth inhibition concentration (TGI) in assay [1], in assay [3], in assay [4], in assay [5], in assay [10] and in [6] was over 100 µM throughout. In addition, the concentration for total growth inhibition (TGI) in assay [7], in assay [8] and in assay [9] was over 100 µM throughout.
